Data taken from patent publication US10562944B2, “Herbicide-resistant protein, encoding gene and use thereof” (BEIJING DABEINONG BIOTECHNOLOGY CO., LTD., priority 2015, dated 2020).

Assays:
[1] = test system: wild-type Arabidopsis plants; assay: Herbicide resistance effect test of wild-type Arabidopsis (spraying); assay type: in vivo, Arabidopsis thaliana; details: genotype Wild, 560 g ae/ha (1x)
From the text: (§1) 24DT21 gene was used to transform Arabidopsis for the first time. At first, T1 transformants were selected from the background of un-transformed seeds, using glufosinate-ammonium selection scheme. About 20000 T1 seeds are screened among which 139 strains of T1 generation positive transformants (PAT gene) were identified, i.e. the transformation efficiency was about 0.7%. Herbicide resistance effect tests to 2,4-D dimethyl ammonium salt and agroxone of Arabidopsis T1 plants transformed with 24DT21 nucleotide sequence, control nucleotide sequence respectively and wild-type Arabidopsis plants were performed after 18 days of planting.
(§2) Arabidopsis T1 plants transformed with 24DT21 nucleotide sequence, control nucleotide sequence respectively and wild-type Arabidopsis plants were sprayed with 2,4-D dimethyl ammonium salt (560 g ae/ha, 1-fold concentration in field), agroxone (560 g ae/ha, 1-fold concentration in field) and blank solvent (water). Resistance conditions of the plants were counted 7 days and 14 days after spraying. Plants with growth conditions consistent with blank solvent (water) 7 days after spaying were classified as highly resistant plants; Plants with curly rosette leaves 7 days after spaying were classified as moderately resistant plants; Plants incapable of bolting 14 days after spaying were classified as low-resistant plants and the dead plants 14 days after spaying were classified as non-resistant plants. Because each Arabidopsis T1 plant is an independent transformation event, significant differences of individual T1 responses can be expected under a given dose.

[2] = test system: Soybean plants containing 24DT21 nucleotide sequence (S1, S2, S3); assay: Herbicide-resistance effect of transgenic soybean T1 plants (spraying, damage degree); assay type: in vivo; details: 2240 g ae/ha (4x); for Average damage % 6 HAT: 6 hours after spraying; for Average damage % 2 DAT: 2 days after spraying; for Average damage % 7 DAT: 7 days after spraying; for Average damage % 14 DAT: 14 days after spraying
Experimental: (§3) Herbicide resistance effects tests to 2,4-D dimethyl ammonium salt and agroxone of soybean plants containing 24DT21 nucleotide sequence and control nucleotide sequence respectively and wild type soybean plants (stages V3-V4) were performed respectively.
(§4) Soybean plants containing 24DT21 nucleotide sequence, control nucleotide sequence and wild type soybean plants were taken and spayed with 2,4-D dimethyl ammonium salt (2240 g ae/ha, four-folds concentration in field), agroxone (2240 g ae/ha, four-folds concentration in field) and blank solvent (water). Take statistics of the damage degree of each plant caused by herbicides according to the curling degree of leaves and the damage degree of growing point six hours ([…]), two days (2DAT), seven days (7DAT) and 14 days (14DAT) after spraying respectively: if leaves are flat like wild-type leaves and the growing point is intact, the damage degree is 0%; if leaves curl up and wilt and the growing point is died, the damage degree is 100%. There are three strains contained a transferred 24DT21 nucleotide sequence (S1, S2 and S3), two strains contained a transferred control sequence (S4 and S5) and one wild-type strain (CK1) in total; select 10˜15 plants from each strain for testing.

[3] = test system: Arabidopsis T1 plants transformed with control nucleotide sequence; assay: Herbicide resistance effect test of Arabidopsis T1 plants, control sequence (spraying); assay type: in vivo, Arabidopsis thaliana; details: genotype Control, 560 g ae/ha (1x)
From the text: as §1, §2

[4] = test system: Corn plants containing 24DT21 nucleotide sequence (S6, S7, S8); assay: Herbicide-resistance effect test of transgenic corn T1 plants (spraying, prop root development); assay type: in vivo; details: 8960 g ae/ha (16x), 21 days after spraying; for Abnormal development of brace roots / Normal development of brace roots: number of plants
Experimental: (§5) Herbicide resistance effects tests to 2,4-D dimethyl ammonium salt and agroxone of corn plants containing 24DT21 nucleotide sequence, control nucleotide sequence respectively and wild type corn plants (stages V3-V4) were performed respectively.
(§6) Corn plants containing 24DT21 nucleotide sequence, control nucleotide sequence respectively and wild type corn plants were taken and spayed with 2,4-D dimethyl ammonium salt (8960 g ae/ha, 16-folds concentration in field), agroxone (8960 g ae/ha, 16-folds concentration in field) and blank solvent (water) respectively. Prop root development was counted 21 days after spaying. Three strains (S6, S7 and S8) of corn plants transformed with 24DT21 nucleotide sequence, two strains (S9 and S10) of corn plants transformed with control nucleotide sequence and 1 strain of wild type (CK2) corn were selected and 10-15 plants from each stain were tested.

[5] = test system: Arabidopsis T1 plants transformed with 24DT21 nucleotide sequence; assay: Herbicide resistance effect test of transgenic Arabidopsis T1 plants (spraying); assay type: in vivo, Arabidopsis thaliana; details: genotype 24DT21, 560 g ae/ha (1x)
From the text: as §1, §2

[6] = test system: Soybean plants containing control nucleotide sequence (S4, S5); assay: Herbicide-resistance effect of soybean plants, control sequence (spraying, damage degree); assay type: in vivo; details: 2240 g ae/ha (4x); for Average damage % 6 HAT: 6 hours after spraying; for Average damage % 2 DAT: 2 days after spraying; for Average damage % 7 DAT: 7 days after spraying; for Average damage % 14 DAT: 14 days after spraying
Experimental: as §3, §4

[7] = test system: wild type corn plants (CK2); assay: Herbicide-resistance effect test of wild type corn (spraying, prop root development); assay type: in vivo; details: wild type corn strain CK2, 8960 g ae/ha (16x), 21 days after spraying
Experimental: as §5, §6

[8] = test system: Corn plants containing control nucleotide sequence (S9, S10); assay: Herbicide-resistance effect test of corn plants, control sequence (spraying, prop root development); assay type: in vivo; details: 8960 g ae/ha (16x), 21 days after spraying; for Abnormal development of brace roots / Normal development of brace roots: number of plants
Experimental: as §5, §6

[9] = test system: wild type soybean plants (CK1); assay: Herbicide-resistance effect of wild type soybean (spraying, damage degree); assay type: in vivo; details: wild-type soybean strain CK1, 2240 g ae/ha (4x)
Experimental: as §3, §4

[10] = number of plants of 32 dead 14 days after spraying
[11] = number of plants of 32 incapable of bolting 14 days after spraying
[12] = number of plants of 32 with curly rosette leaves 7 days after spraying
[13] = number of plants of 32 with growth consistent with blank solvent 7 days after spraying
[14] = soybean strain S4 (control sequence)
[15] = soybean strain S5 (control sequence)
[16] = corn strain S9 (control sequence)
[17] = corn strain S10 (control sequence)

SMILES: Cc1cc(Cl)ccc1OCC(=O)O [agroxone]
- Non-resistant [1, 10]: 32
- Low resistant [1, 11]: 0
- Moderate resistant [1, 12]: 0
- High resistant [1, 13]: 0
- Average damage % 6 HAT ([2]; soybean strain S1 (24DT21)): 10%
- Average damage % 2 DAT ([2]; soybean strain S1 (24DT21)): 5%
- Average damage % 7 DAT ([2]; soybean strain S1 (24DT21)): 0%
- Average damage % 14 DAT ([2]; soybean strain S1 (24DT21)): 0%
- Average damage % 6 HAT ([2]; soybean strain S2 (24DT21)): 16%
- Average damage % 2 DAT ([2]; soybean strain S2 (24DT21)): 11%
- Average damage % 7 DAT ([2]; soybean strain S2 (24DT21)): 6%
- Average damage % 14 DAT ([2]; soybean strain S2 (24DT21)): 0%
- Average damage % 6 HAT ([2]; soybean strain S3 (24DT21)): 7%
- Average damage % 2 DAT ([2]; soybean strain S3 (24DT21)): 4%
- Average damage % 7 DAT ([2]; soybean strain S3 (24DT21)): 0%
- Average damage % 14 DAT ([2]; soybean strain S3 (24DT21)): 0%
- Non-resistant [3, 10]: 32
- Low resistant [3, 11]: 0
- Moderate resistant [3, 12]: 0
- High resistant [3, 13]: 0
- Proportion of normal development of brace roots ([4]; corn strain S6 (24DT21)): 100.00%
- Abnormal development of brace roots ([4]; corn strain S6 (24DT21)): 0
- Normal development of brace roots ([4]; corn strain S6 (24DT21)): 11
- Proportion of normal development of brace roots ([4]; corn strain S7 (24DT21)): 100.00%
- Abnormal development of brace roots ([4]; corn strain S7 (24DT21)): 0
- Normal development of brace roots ([4]; corn strain S7 (24DT21)): 12
- Proportion of normal development of brace roots ([4]; corn strain S8 (24DT21)): 100.00%
- Abnormal development of brace roots ([4]; corn strain S8 (24DT21)): 0
- Normal development of brace roots ([4]; corn strain S8 (24DT21)): 13
- Non-resistant [5, 10]: 7
- Low resistant [5, 11]: 2
- Moderate resistant [5, 12]: 2
- High resistant [5, 13]: 21
- Average damage % 6 HAT [6, 14]: 38%
- Average damage % 2 DAT [6, 14]: 69%
- Average damage % 7 DAT [6, 14]: 87%
- Average damage % 14 DAT [6, 14]: 100%
- Average damage % 6 HAT [6, 15]: 47%
- Average damage % 2 DAT [6, 15]: 74%
- Average damage % 7 DAT [6, 15]: 92%
- Average damage % 14 DAT [6, 15]: 100%
- Proportion of normal development of brace roots [7]: 0%
- Abnormal development of brace roots ([7]; number of plants): 15
- Normal development of brace roots ([7]; number of plants): 0
- Proportion of normal development of brace roots [8, 16]: 0%
- Abnormal development of brace roots [8, 16]: 13
- Normal development of brace roots [8, 16]: 0
- Proportion of normal development of brace roots [8, 17]: 0%
- Abnormal development of brace roots [8, 17]: 10
- Normal development of brace roots [8, 17]: 0
- Average damage % 6 HAT ([9]; 6 hours after spraying): 34%
- Average damage % 2 DAT ([9]; 2 days after spraying): 61%
- Average damage % 7 DAT ([9]; 7 days after spraying): 82%
- Average damage % 14 DAT ([9]; 14 days after spraying): 100%
